Reference: publication PMC10046377, “Inhibitors of the Oncogenic PA2G4-MYCN Protein-Protein Interface” (Cancers, 2023)

Test system: neuroblastoma cells (Kelly and SK-N-BE(2)-C)
Assay: BrdU cell proliferation assay
Type: cell-based, human
Conditions: 30 μM drug treatment for 48 h
Method: Cells were seeded in 96-well plates the day before and then treated with #5333 and #5338 for […]. Cell proliferation was measured using the BrdU ELISA kit (Roche, Millers Point, Australia), according to the manufacturer’s instructions. 10 μM BrdU was added to media and incubated at 37 °C in 5% CO2 for 2 h. Cells were fixed with supplied fixing solution for 30 min and then blocked with 10% FCS in PBS for 10 min. Peroxidase-conjugated anti-BrdU (1:100) was added and incubated for 90 min at room temperature. After washing with PBS for three times, peroxidase substrate was added to the cells. Changes in cell proliferation were calculated from the absorbance readings at 370 nm (495 nm reference wavelength) on the Benchmark Plus microplate reader (Bio-Rad).
We treated human neuroblastoma tumour cell lines with high MYCN and PA2G4 expression (Kelly and SK-N-BE(2)-C), using increasing concentrations of #5333 or #5338, and measured the ability of cells to proliferate and form colonies in vitro over 2 weeks. […] Next, we evaluated cell replication using the BrdU uptake assay in response to 30 μM drug treatment for 48 h (Figure 2C).

Row | Compound | cell proliferation (BrdU uptake)
1 | Cc1cccc(Oc2cc(N3CCC(C(=O)NCc4cccc(Br)c4)CC3)ncn2)c1C [#5333] | significantly reduced
2 | Cc1cccc(Oc2cc(N3CCC(C(=O)N[C@@H](C)CCc4ccccc4)CC3)ncn2)c1C [#5338] | significantly reduced
